# Laboratory results from patent US8703419B2, “Method for diagnosis/prognosis of cancers using an epigenetic marker consisting of a specific single CpG site in TTP promoter and treatment of cancers by regulating its epigenetic status” (Korea Research Institute of Bioscience and Biotechnology, priority 2009, dated 2014).
# Experiments:
# Type in all cases: cell-based, human
# TTP promoter = TTP promoter luciferase reporter assay; conditions: SK-Hep1 cells; no AzadC
# Protocol: To confirm that TTP expression is directly controlled by methylation of the #2 CpG site, the present inventors examined the transcriptional activity of the TTP promoter region in relation to the methylation status of the #2 CpG site using luciferase reporter assays.
# Luciferase assays were performed using the Promega Luciferase Assay System (Promega, USA), according to the manufacturer's protocol. Luciferase reporter constructs were generated by amplifying TTP promoter regions from normal human genomic DNA (BioChain, USA) using the primer sets shown in Table 5 according to the method of Example <1-2>.
# As a result, wild-type promoter (WT), a single base-substituted promoter (C→T), and TRR-deleted promoter (Del) were constructed. These promoters were cloned into the KpnI/BglII sites of pGL3-basic vector (Promega, USA). Ligated products were amplified in E. coli. After purification, the ligated products were transfected into SK-Hep1 cells by using LipofectAMINE Plus reagent (Invitrogen). Specifically, the luciferase reporter constructs (0.25 μg) were co-transfected with a control plasmid (0.05 μg) encoding renilla into 1×10^5 cells/well in 12-well plates. At that time, AzadC was treated 12 hours before the transfection. After treating with TGFβ1, luciferase activities were measured using a luminometer (Berthold Lumat LB9501, Bad Wildbad, Germany). […]
# PLC/PRF/5 cells [1] = assay: Cell cycle by FACS after TTP knock-down
# Protocol: (§1) Lentiviral-based short hairpin RNAs (shRNAs) against TTP (Sigma-Aldrich; […] CTTTTT: SEQ. ID. NO. 40) or control shRNA targeting eGFP (Sigma-Aldrich) were transfected into PLC/PRF/5 cells and selected with 1 mg/l puromycin (Invitrogen). The selected PLC/PRF/5 transfectants were additionally treated with TGFβ1 for 0, 0.5, 1.0, 1.5, 2.0, and 2.5 hours. To investigate the half-life of c-Myc mRNA, actinomycin D was treated for 0, 15, 30, […], 60, and 75 minutes, and RT-PCR was performed with the cells.
# FACS was performed with the cells treated in Example <7-4>.
# [2] = system: acetylation of histones H3 and H4 at TRR; assay: ChIP analysis of histone H3 and H4 acetylation at TRR; conditions: PLC/PRF/5 cells; regardless of AzadC pretreatment; P<0.05
# Protocol: (§2) ChIP analysis was performed using a specific assay kit (Millipore, USA) according to manufacturer's specifications. SK-Hep1 and PLC/PRF/5 cells were pre-treated or not treated with AzadC for 72 hours, to which TGFβ1 was additionally treated or not treated. The cells were treated with formaldehyde, leading to the binding of DNA to the protein (DNA conjugated protein), followed by cell lysis. After DNA fractionation, the antibody to RNAPII protein shown in Table 7 was added thereto, followed by reaction at 4° C. for overnight. The antibody was isolated by adding 50 μl of Protein A/G PLUS-Agarose. At this time, the DNA specifically bound to the antibody was purified. The purified DNA proceeded to PCR using the primer sets of Table 8.
# Chromatin is basically composed of histones and DNA. The histone status, that is, the methylation or acetylation status of histones is involved in the regulation of gene expression. Transcriptional activity is additionally dependent on the acetylation level of histones H3 and H4 in the promoter region. Moreover, TGFβ1-mediated transcription activation requires H3 acetylation (Ross S et al., EMBO J 25:4490-4502, 2006). Therefore, information about the transcriptional activity of the promoter region can be obtained by using the antibody against acetylated histone. […]
# [3] = system: phospho-SMAD2/3 binding to TRR; assay: ChIP analysis of phosphorylated SMAD2/3 binding to TRR; conditions: both SK-Hep1 and PLC/PRF/5 cell lines
# Protocol: as §2
# The present inventors performed ChIP analysis using the antibodies shown in Table 9 in the same manner as described in Example <6-1> in order to investigate the bindings of phosphorylated SMAD2/3, transcription inhibitor, methyl DNA binding protein, and DNMT (DNA methyltransferase), which are important factors involved in TGFβ1 signal transduction, in TRR (a). At this time, input was a part of cell extract obtained after fixing the cells in formaldehyde and DNA fractionation, which is the status right before immunoprecipitation with antibody.
# [4] = system: SK-Hep1 and PLC/PRF/5 cells; assay: Cell growth by MTT assay and crystal violet staining; conditions: TGFβ1 96 hours
# Protocol: (§3) MTT assay and crystal violet staining were performed with the cells. MTT (methylthiazoletetrazolium; Sigma-Aldrich) assay was performed by the informed technique (Mosmann T, J Immunol Methods 65:55-63, 1983) using μQuant Universal Microplate Spectrophotometer (Biotek Instruments, USA) at 570 nm. For crystal violet staining, the cells were fixed in 10% formaldehyde and stained in 10% crystal violet solution for 10 min at room temperature.
# c-Myc mRNA = c-Myc mRNA level after TGFβ1 (RT-PCR)
# Protocol: (§4) Total RNA was extracted from the HCC cell lines by using RNeasy mini kit (QIAGEN, USA). Distilled water was added to 1 μg of the total RNA and 1 μl of oligo-d(T) (Invitrogen, USA, 0.5 μg/μl) to make the total volume of the mixture 50 μl, followed by RT-PCR in AccuPower RT-premix (Bioneer, Korea). Before RT-PCR, cDNA was synthesized as follows: at 70° C. for 5 minutes, at 4° C. for 5 minutes, at 42° C. for 60 minutes, at 94° C. for 5 minutes, and at 4° C. for 5 minutes to produce cDNA. PCR was performed by using the obtained cDNA (3˜5 μl) or distilled water (negative control) as a template with the primer set as shown in Table 1 and PCR Master Mix (Promega, USA). PCR conditions were as follows: pre-denaturation at 95° C. for 5 minutes, denaturation at 95° C. for 45 seconds, annealing at 65° C. for […], polymerization at 72° C. for 45 seconds, 35 cycles from denaturation to polymerization, final extension at 72° C. for 5 minutes, and cooling at 4° C. The amplified product was quantified via standardization with β-actin.
# SK-Hep1 and PLC/PRF/5 cells which had been pre-treated or not treated with AzadC for 72 hours were treated additionally with TGFβ1 for 0, 0.5, 1.0, 1.5, 2.0, and 2.5 hours. Then RT-PCR was performed with the cells by using the primer sets of Table 10 in the same manner as described in Example <1-2>.
# [5] = system: TTP expression in PLC/PRF/5 and SK-Hep1 cells; assay: TGFβ1-mediated TTP induction with or without AzadC (RT-PCR)
# Protocol: as §4
# TGFβ1 (R&D systems, USA) was treated thereto at the concentration of 5 μg/l for 0, 0.5, 1, 1.5, 3, 6, and 12 hours.
# [6] = system: RNAPII binding to the TTP locus; assay: ChIP analysis of RNAPII binding to the TTP locus; conditions: PLC/PRF/5 cells; regardless of AzadC treatment
# Source text: To establish the molecular mechanism of epigenetic regulation of TTP, the present inventors estimated the levels of different forms of phosphorylated RNAPII (RNA polymerase II) proteins bound to the TTP locus by ChIP (chromatin immunoprecipitation) analysis, i.e., unphosphorylated form (unP) as a measure of transcriptional initiation, and those phosphorylated at serine 5 (pS5) and serine 2 (pS2) of the carboxy-terminal repeat domain as a measure of promoter escape/capping and transcriptional elongation, respectively.
# as §2
# PLC/PRF/5 cells [7] = assay: Cell growth after TTP knock-down (MTT, crystal violet staining)
# Protocol: as §3, with “SK-Hep1 and PLC/PRF/5 cells were pre-treated or not treated with AzadC for 72 hours, to which TGFβ1 was additionally treated or not treated for 96 hours. MTT assay” for “MTT assay”
# as §1
# Western blotting was performed with the cells treated in Example <7-4> in the same manner as described in Example <7-2-1> to investigate the levels of c-Mycand p21^Cip1. MTT and crystal violet staining were also performed in the same manner as described in Example <7-2-2>.
# [8] = system: c-Myc mRNA in PLC/PRF/5 cells; assay: c-Myc mRNA degradation and half-life after TTP knock-down (RT-PCR, actinomycin D)
# Protocol: as §1
# [9] = PLC/PRF/5 cells (#2 CpG not methylated), TGFβ1 5 μg/l
# [10] = PLC/PRF/5 cells, both before and after TGFβ1 treatment
substance,measurement,setting,value
"TGFβ1: Transforming growth factor beta 1, a multifunctional cytokine (R&D systems)","responsiveness of wild-type TTP promoter (WT) to TGFβ1, luciferase",TTP promoter,not responsive
same,size of the G2/M population following TGFβ1 treatment,PLC/PRF/5 cells [1]; PLC/PRF/5 control cells (control shRNA),decreased significantly
same,acetylation of histones H3 and H4 at TRR (region a),[2],significantly increased
same,binding of phospho-SMAD2/3 to TRR,[3],TGFβ1-dependent binding of phospho-SMAD2/3 to TRR was observed
same,cell growth,[4],phenotypic growth inhibition
same,c-Myc level,"c-Myc mRNA; PLC/PRF/5 cells, TGFβ1 0-2.5 hours",rapidly decreased from 1 hour after TGFβ1 treatment
same,c-Myc level decrease,"c-Myc mRNA; SK-Hep1 cells, TGFβ1 without AzadC",not in SK-Hep1 cells
same,time of peak TTP expression after TGFβ1 treatment,[5]; [9],1 h
same,time to increase of TTP expression after TGFβ1 treatment,[5]; [9],≤ 30 min
same,induction of TTP expression,"[5]; SK-Hep1 cells (high #2 CpG methylation), TGFβ1 alone 5 μg/l",not induced
same,binding of RNAPII proteins to the TTP locus,[6],significantly increased the binding of RNAPII proteins
"TTP knock-down: Lentiviral-based short hairpin RNA against TTP (Sigma-Aldrich), SEQ. ID. NO. 40, transfected into PLC/PRF/5 cells (CCGGGCTTCGCCAGAGCATCAGCTTCTCGAGAAGCTGATGCTCTGGCGAAGCTTTTT; expressed or natural sequence)",growth inhibitory effect of TGFβ,PLC/PRF/5 cells [7],blocking the growth inhibitory effect of TGFβ
same,growth rate,PLC/PRF/5 cells [7],elevated the growth rate
same,size of the G2/M population following TGFβ1 treatment,PLC/PRF/5 cells [1]; PLC/PRF/5 TTP knock-down cells,remained unchanged
same,relative size of the G1 and sub G1 populations,PLC/PRF/5 cells [1]; [10],decreased
same,relative size of the S phase population,PLC/PRF/5 cells [1]; [10],increased
same,half-life of c-Myc mRNA,"[8]; in the presence of actinomycin D, control 24 min",51 min
same,c-Myc mRNA degradation after TGFβ1 treatment,[8]; shRNA-mediated knock-down of TTP,significantly retarded c-Myc mRNA degradation
